Reference: patent US20080293785A1, “SUBSTITUTED BENZOTHIAZOLE KINASE INHIBITORS” (priority 2006, published 2008)
pIC50: −log10 of the molar value.

Key:
Type in all cases: biochemical
CDK1:Cyclin-B = biological target: T1, CDK1:Cyclin-B (Homo sapiens, UniProt P06493); assay: CDK1 Screening Assay; conditions: 10 μM ATP, biotinylated histone-H1 peptide substrate, 33P-γ-ATP FlashPlate; read-out: Kinase IC50 CDK1
T1 construct: purchased New England Biolabs, Beverly, Mass; 6020; host or cells: insect cells
T1 sequence (P06493 whole entry): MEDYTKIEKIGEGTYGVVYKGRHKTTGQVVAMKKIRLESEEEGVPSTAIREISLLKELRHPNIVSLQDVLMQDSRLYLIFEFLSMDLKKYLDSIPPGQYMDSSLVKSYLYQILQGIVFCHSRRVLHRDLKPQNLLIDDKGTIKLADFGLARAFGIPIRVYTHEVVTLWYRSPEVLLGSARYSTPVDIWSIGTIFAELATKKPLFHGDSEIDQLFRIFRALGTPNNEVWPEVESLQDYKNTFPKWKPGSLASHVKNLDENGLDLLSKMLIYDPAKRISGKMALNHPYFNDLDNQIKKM
T1 sequence (P14635 whole entry partner): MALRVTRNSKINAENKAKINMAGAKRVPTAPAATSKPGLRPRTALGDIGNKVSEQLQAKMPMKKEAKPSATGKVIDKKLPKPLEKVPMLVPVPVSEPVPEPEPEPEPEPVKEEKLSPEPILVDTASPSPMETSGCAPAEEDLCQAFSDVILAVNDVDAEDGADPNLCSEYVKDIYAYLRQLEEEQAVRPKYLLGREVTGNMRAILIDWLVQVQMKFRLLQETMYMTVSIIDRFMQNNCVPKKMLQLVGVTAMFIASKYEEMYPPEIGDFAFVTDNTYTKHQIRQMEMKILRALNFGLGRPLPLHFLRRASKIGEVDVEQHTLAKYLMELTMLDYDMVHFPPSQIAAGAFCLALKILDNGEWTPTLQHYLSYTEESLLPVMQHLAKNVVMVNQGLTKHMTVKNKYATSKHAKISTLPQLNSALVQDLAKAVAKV
Protocol: (§1) A kinase reaction mixture was prepared containing 50 mM Tris.HCl pH=8, 10 mM MgCl2, 0.1 mM Na3PO4, 1 mM DTT, 10 μM ATP, 0.025 μM biotinylated histone-H1 peptide substrate and 0.2 μCuries per well ^33P-γ-ATP (2000-3000 Ci/mmol). 70 μL of the kinase reaction mixture was dispensed into the well of a streptavidin coated FlashPlate™ (Cat. # SMP103, NEN, Boston, Mass.). Then 1 μL of test compound stock in 100% DMSO was added to the wells resulting in a final concentration of 1% DMSO in the reaction well with a 100 μL final reaction well volume.
(§2) The CDK1:Cyclin-B protein was diluted in 50 mM Tris.HCl pH=8.0, 0.1% BSA at a concentration of 1 ng per μL and 30 μL (30 ng enzyme per test well) was added to each well to initiate the reaction. The reaction was incubated for one hour at 30° C. At the end of the one hour incubation, the reaction was terminated by aspirating the mixture from the plate and washing the wells twice with PBS containing 100 mM EDTA. The histone-H1 biotinylated peptide substrate became immobilized on the Flashplate™ and the incorporation of ^33P-γ-ATP was measured by reading the plate on a scintillation counter. Inhibition of the enzymatic activity of CDK1 was measured by observing a reduced amount of ^33P-γ-ATP incorporated into the immobilized peptide.
The CDK1 kinase used was isolated from insect cells expressing both the human CDK1 catalytic subunit and its positive regulatory subunit cyclin B (New England Biolabs, Beverly, Mass., Cat. # 6020).
(§3) An IC50 listed as >0.1, >1, >10 or >100 means no observed 50% inhibition at the indicated test concentration. […] ND means the compound was not tested in the assay specified.

CDK2:Cyclin A = biological target: T2, CDK2:Cyclin A (Homo sapiens, UniProt P24941); assay: CDK2 Screening Assay; conditions: 10 μM ATP, biotinylated histone-H1 peptide substrate, 33P-γ-ATP FlashPlate; read-out: Kinase IC50 CDK2
T2 construct: purchased Upstate Biotech, Lake Placid, N.Y
Protocol: as §1
as §2, with “CDK2:Cyclin A” for “CDK1:Cyclin-B”, “CDK2” for “CDK1”
The CDK2 kinase used was complexed with cyclin A and is commercially available (Upstate Biotech, Lake Placid, N.Y.).
as §3

VEGF-R2 kinase domain = VEGF-R2 kinase domain (Rattus norvegicus, UniProt O08775); assay: VEGF-R2 Screening Assay; conditions: 10 μM ATP, biotinylated PLC1 peptide substrate, 33P-γ-ATP FlashPlate; read-out: Kinase IC50 VEGFR
Chain of VEGF-R2 kinase domain (O08775 786-1343): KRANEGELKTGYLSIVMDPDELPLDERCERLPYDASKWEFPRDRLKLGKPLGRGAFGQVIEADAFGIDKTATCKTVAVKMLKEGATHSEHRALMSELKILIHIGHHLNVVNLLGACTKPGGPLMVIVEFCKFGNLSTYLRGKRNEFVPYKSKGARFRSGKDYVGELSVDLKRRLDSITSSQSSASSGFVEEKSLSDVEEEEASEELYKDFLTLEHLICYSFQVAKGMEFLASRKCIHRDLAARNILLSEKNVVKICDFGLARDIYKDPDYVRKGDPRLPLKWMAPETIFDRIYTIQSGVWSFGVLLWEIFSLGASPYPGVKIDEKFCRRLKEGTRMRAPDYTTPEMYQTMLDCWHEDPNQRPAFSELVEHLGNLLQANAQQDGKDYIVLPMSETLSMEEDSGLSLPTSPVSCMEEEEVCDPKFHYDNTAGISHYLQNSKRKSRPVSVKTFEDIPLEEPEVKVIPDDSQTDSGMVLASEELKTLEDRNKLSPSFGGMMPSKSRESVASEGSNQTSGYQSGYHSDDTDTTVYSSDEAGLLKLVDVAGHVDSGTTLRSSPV
Protocol: as §1, with “biotinylated” for “biotinylated histone-H1”, “0.8” for “0.2”
The soluble rat tyrosine kinase containing an N-terminal 6×HIS tag was diluted in 50 mM Tris.HCl pH=8.0, 0.1% BSA at a concentration of 5 ng per μL and 30 μL (150 ng enzyme per test well) was added to each well to initiate the reaction. The reaction was incubated for one hour at 30° C. At the end of the one hour incubation, the reaction was terminated by aspirating the reaction mixture from the plate and washing the wells twice with PBS containing 100 mM EDTA. The PLC1 biotinylated peptide substrate became immobilized on the Flashplate™ and the incorporation of ^33P-γ-ATP was measured by reading the plate on a scintillation counter. Inhibition of the enzymatic activity of the VEGF-R was measured by observing a reduced amount of ^33P-γ-ATP incorporated into the immobilized peptide.
The VEGF-R kinase assay was carried out using the CDK kinase assay procedure except that the enzyme was replaced with the VEGF-R2 fusion protein containing a polyhistidine tag at the N-terminus followed by amino acids 786-1343 of the rat VEGF-R2 kinase domain (GenBank Accession #U93306).
as §3

Structure (SMILES)	pIC50 (CDK1:Cyclin-B)	pIC50 (CDK2:Cyclin A)	pIC50 (VEGF-R2 kinase domain)
O=C(Nc1cccc2sc(Nc3ccccc3)nc12)NC1CCCCC1 [Cpd 61, 1-cyclohexyl-3-(2-phenylamino-benzothiazol-4-yl)-urea]	< 4.00	< 4.00	< 4.00
O=C(Nc1cccc2sc(Nc3ccccc3)nc12)c1cccc(Br)c1 [Cpd 33, 3-bromo-N-(2-phenylamino-benzothiazol-4-yl)-benzamide]	< 4.00	< 4.00	< 4.00
O=C(Nc1cccc2sc(Nc3ccccc3)nc12)c1cc([N+](=O)[O-])cc([N+](=O)[O-])c1 [Cpd 43, 3,5-dinitro-N-(2-phenylamino-benzothiazol-4-yl)-benzamide]	< 4.00	< 4.00	< 4.00
Cc1nnsc1C(=O)Nc1cccc2sc(Nc3ccccc3)nc12 [Cpd 56, 4-methyl-[1,2,3]thiadiazole-5-carboxylic acid (2-phenylamino-benzothiazol-4-yl)-amide]	< 4.00	< 5.00	< 4.00
O=C(Nc1cccc2sc(Nc3ccccc3)nc12)c1cncc(Br)c1 [Cpd 24, 5-bromo-N-(2-phenylamino-benzothiazol-4-yl)-nicotinamide]	4.27	5.08	< 4.00
O=C(Nc1cccc2sc(Nc3ccccc3)nc12)C1CCCC1 [Cpd 52, cyclopentanecarboxylic acid (2-phenylamino-benzothiazol-4-yl)-amide]	< 4.00	5.86	< 4.00
O=C(Nc1cccc2sc(Nc3ccccc3)nc12)c1ccc(N2CCOCC2)nc1 [Cpd 21, 6-morpholin-4-yl-N-(2-phenylamino-benzothiazol-4-yl)-nicotinamide]	4.83	5.81	< 4.00
O=C(CC1CCCCC1)Nc1cccc2sc(Nc3ccccc3)nc12 [Cpd 58, 2-cyclohexyl-N-(2-phenylamino-benzothiazol-4-yl)-acetamide]	< 4.00	< 4.00	< 4.00
CC(=O)Nc1cccc2sc(Nc3ccccc3)nc12 [Cpd 16, N-(2-phenylamino-benzothiazol-4-yl)-acetamide]	< 4.00	< 5.00	< 4.00
O=C(Nc1cccc2sc(Nc3ccccc3)nc12)C1CCCCC1 [Cpd 41, cyclohexanecarboxylic acid (2-phenylamino-benzothiazol-4-yl)-amide]	< 4.00	5.69	≤ 4.00
O=C(Nc1cccc2sc(Nc3ccccc3)nc12)Oc1ccccc1 [Cpd 53, (2-phenylamino-benzothiazol-4-yl)-carbamic acid phenyl ester]	< 4.00	< 4.00	< 4.00
O=C(Nc1cccc2sc(Nc3ccccc3)nc12)c1ccno1 [Cpd 18, isoxazole-5-carboxylic acid (2-phenylamino-benzothiazol-4-yl)-amide]	< 4.00	5.12	< 4.00
COc1ccc(Nc2nc3c(NC(=O)c4c(F)ccc(C)c4F)cccc3s2)cc1 [Cpd 11, 2,6-difluoro-N-[2-(4-methoxy-phenylamino)-benzothiazol-4-yl]-3-methyl-benzamide]	< 4.00	< 5.00	< 4.00
CCc1ccc(C(=O)Nc2cccc3sc(Nc4ccccc4)nc23)s1 [Cpd 42, 5-ethyl-thiophene-2-carboxylic acid (2-phenylamino-benzothiazol-4-yl)-amide]	< 4.00	< 4.00	< 4.00
O=C(Nc1cccc2sc(Nc3ccccc3)nc12)c1cccs1 [Cpd 35, thiophene-2-carboxylic acid (2-phenylamino-benzothiazol-4-yl)-amide]	< 4.00	< 4.00	< 4.00
O=C(Nc1cccc2sc(Nc3ccccc3)nc12)C1CCCCCC1 [Cpd 55, cycloheptanecarboxylic acid (2-phenylamino-benzothiazol-4-yl)-amide]	< 4.00	< 4.00	< 4.00
